Literature values as cited in patent publication US6465677B1, “Method for the preparation of N-neohexyl-α-aspartyl-L-phenylalanine methyl ester from imidazolidin-4-one intermediates” (The NutraSweet Company, priority 1998, dated 2002).

Conditions: on a weight basis

COC(=O)[C@H](Cc1ccccc1)NC(=O)[C@H](CC(=O)O)NCCC(C)(C)C [neotame, N-[N-(3,3-dimethylbutyl)-L-α-aspartyl]-L-phenylalanine 1-methyl ester]
sweetness relative to sucrose: approximately 8,000 times as sweet as sucrose
